Data on 16 compounds can be found in ChEMBL document CHEMBL1136412, “Imidazo[4,5-c]pyridines as corticotropin releasing factor receptor ligands” (Bioorg Med Chem Lett, 2003).

The structures appear in SMILES notation.

The nature of series [1]: Maximal plasma concentration at a dose of 1 mg/kg (oral). In kind it is ADME, organism-based, Canis lupus familiaris. On the set-up: route oral, dose 1 mg/kg. To be noted: dog.
The subject of series [2] is Canis familiaris. Briefly: Area under the curve at i.v. dose of 0.2 mg/kg. Type of series: ADME, organism-based, Canis lupus familiaris. Set-up: dose 0.2 mg/kg, route intravenous. To be noted: dog, in vivo, iv.
Series [3] in a line: Oral bioavailability at a dose of 1 mg/kg in dogs. In kind it is ADME, organism-based, Canis lupus familiaris. To be noted: dog, in vivo.
Series [4] relates to Canis familiaris. Briefly: Area under the curve at a dose of 1 mg/kg (oral). Type of series: ADME, organism-based, Canis lupus familiaris. On the set-up: dose 1 mg/kg. Particulars: dog, in vivo.
Series [5] is described as follows: (§1) Half life was evaluated in dog. To be noted: in vivo. In kind it is ADME, organism-based, Canis lupus familiaris.
Series [6] is filed under the species Canis familiaris. Described as §1. Type of series: ADME, organism-based, Canis lupus familiaris. Particulars: in vivo.
Series [7] addresses T1, Corticotropin releasing factor receptor (Rattus norvegicus, UniProt P47866+P35353). The series can be described thus: In vitro binding affinity against Corticotropin releasing factor receptor in rat cortical homogenates.
The nature of series [8]: Steady state volume of distribution at a dose of 0.2 mg/kg i.v. To be noted: dog, in vivo, iv, read-out: Vss. On the set-up: dose 0.2 mg/kg, route intravenous. Type of series: ADME, organism-based, Canis lupus familiaris.
A short description of series [9]: Clearance value at a dose of 0.2 mg/kg i.v. Type of series: ADME, organism-based, Canis lupus familiaris. On the set-up: dose 0.2 mg/kg, route intravenous. To be noted: dog, in vivo, iv, read-out: Cls (converted).
A short description of series [10]: Partition coefficient (logP). In kind it is physicochemical. To be noted: octanol/water.
Series [11] is described as follows: pKa value of the compound. Type of series: physicochemical.
Series [12] has as its target T1, Corticotropin releasing factor receptor. Briefly: In vitro binding affinity against CRF receptor in rat cortical homogenates.

As to `CCC[C@H](C)n1c(CC)nc2c(-c3ccc(OC(F)(F)F)cc3Cl)nccc21`, in series [1], the peak level (Cmax) was 92.4 nM. Moreover, the area under the curve (AUC) (usually concentration integrated over time) was 341 nM·h in series [2] and 569 nM·h in series [4]. For the same compound, in [3], the bioavailability (usually dose-corrected exposure relative to a reference, in per cent) amounted to 33%. Further, the half-life – broadly, the time in which the quantity being followed falls by half – in series [5] is 906 min. In series [6], the T1/2 came to 9.4 h. Further, the inhibitory constant (Ki) (in general, the dissociation constant of the complex between target and ligand, obtained from inhibition or displacement) in series [7] turned out to be 2.3 nM. Besides, in [8], the Vd came out at 19.1 L/kg. The clearance in [9] is 23.3 mL/min/kg.
Consider `CCc1nc2c(-c3ccc(Cl)cc3Cl)nccc2n1C(CC)C1CC1` (stereo not drawn), for which the logP (as a rule, the decadic logarithm of the partition coefficient of the neutral form, usually between octanol and water) in [10] stood at 4.1.
Regarding `CCc1nc2c(-c3ccc(Cl)cc3Cl)ccnc2n1C(CC)C1CC1` (stereo not drawn), in series [10], the logP stood at 5.56. In series [11], the pKa (as a rule, the negative logarithm of the acid dissociation constant) came out at 3.86.
In turn, `CCCC(C)n1c(CC)nc2c(-c3ccc(Cl)cc3C)nccc21` (stereo not drawn) gave an inhibition constant (Ki) in [7] of 9.1 nM.
Consider `CCc1nc2c(-c3ccc(C(F)(F)F)cc3Cl)nccc2n1C(CC)C1CC1` (stereo not drawn), for which the inhibition constant Ki in series [7] is listed as 2.9 nM.
For the compound `CCCC(C)n1c(CC)nc2c(-c3ccc(Cl)cc3Cl)nccc21` (stereo not drawn), the Ki in series [7] is on record as 3 nM.
`CCc1nc2c(-c3ccc(Cl)cc3Cl)ncnc2n1C(C)C1CC1` (stereo not drawn): in series [10], the logP was found to be 4.33. The compound further returned a pKa in series [11] of less than 3.
For the compound `CCC[C@@H](C)n1c(CC)nc2c(-c3ccc(OC(F)(F)F)cc3Cl)nccc21`, the inhibition constant (Ki) in series [7] was 1.9 nM.
As to `CCCC(C)n1c(CC)nc2c(-c3ccc(OC(F)F)cc3Cl)ccnc21` (stereo not drawn), in [10], the logP came out at 5.35.
As for `CCc1nc2c(-c3ccc(OC(F)(F)F)cc3Cl)nccc2n1C(C)CC` (stereo not drawn), the inhibition constant (Ki) in [12] amounted to 7.8 nM.
For the compound `CCCC(C)n1c(CC)nc2c(-c3ccc(OC(F)(F)F)cc3Cl)nccc21` (stereo not drawn), in series [10], the logP came out at 4.62. This compound displayed a pKa in series [11] of 5.09. Besides, the Ki in [7] turned out to be 2.8 nM.
The compound `CCCC(C)n1c(CC)nc2c(-c3ccc(OC(F)F)cc3C)nccc21` (stereo not drawn) showed a Ki in series [7] of 9 nM.
The same measure, in the same setting: under `CCc1nc2c(-c3ccc(Cl)cc3C)nccc2n1C(CC)C1CC1` (stereo not drawn) stands 14 nM.
The compound `CCCC(C)n1c(CC)nc2c(-c3ccc(C(F)(F)F)cc3Cl)nccc21` (stereo not drawn) registered a Ki in series [7] of 3.5 nM.
With `CCc1nc2c(-c3ccc(C(F)(F)F)cc3Cl)nccc2n1C(CC)CC`, the Ki in [7] amounted to 5.4 nM.
Consider `CCc1nc2c(-c3ccc(Cl)cc3C(F)(F)F)nccc2n1C(CC)C1CC1` (stereo not drawn), for which the Ki in series [7] is listed as 4.4 nM.
